Reference: publication PMC5925453 (EBioMedicine, 2018)

Columns and labels:
Type in all cases: cell-based
[1] = test system: PC9 (exon 19 deletion) cells; assay: Cell viability assay; conditions: for IC50: Homo sapiens, PC-9, 72 h
[2] = test system: HCC4006 (exon 19 deletion) cells; assay: Cell viability assay; conditions: Homo sapiens, HCC4006, 72 h
11–18 (Leu858Arg) cells = assay: cells; conditions: 72 h
[3] = test system: HCC827 (exon 19 deletion) cells; assay: Cell viability assay; conditions: Homo sapiens, HCC827, 72 h
[4] = test system: STAT3 and FAK phosphorylation; assay: Western blotting, dasatinib or TPX-0005, PC9 and H1975 cell lines; conditions: dasatinib 50 and 100 μM respectively, 24 h
[5] = test system: EGFR downstream signal transduction pathways and RTKs; assay: Western blotting, osimertinib with TPX-0005, PC9, 11–18 and H1975 cell lines; conditions: TPX-0005 1 μM, 24 h
[6] = test system: H1975 (Leu858Arg and Thr790Met) cells; assay: cells; conditions: for IC50: Homo sapiens, NCI-H1975, 72 h
[7] = test system: mRNA expression of RTK and non-RTK genes; assay: Quantitative RT-PCR after treatment, PC9 and H1975 cells; conditions: TPX-0005 1 μM alone or combined with an EGFR TKI, five days
[8] = test system: phospho-STAT3 in PC9 cells; assay: Immunofluorescence and imaging flow cytometry of STAT3 / phospho-STAT3; conditions: 24 h
[9] = osimertinib 0.05, 0.8 and 0.02 μM respectively

IC50 [1] | IC50 [2] | IC50 (11–18 (Leu858Arg) cells) | IC50 [3] | IC50 [6] | SMILES | STAT3 and FAK phosphorylation [4] | Src and FAK phosphorylation [5, 9] | mRNA expression of most of the transcripts explored [7] | AXL total protein expression [5] | CDCP1 phosphorylation [5, 9] | interaction of TPX-0005 with gefitinib (cell viability, colony formation) ([1]; PC9 cells) | STAT3 activation state by intracellular localization (immunofluorescence) [8] | interaction of TPX-0005 with osimertinib (cell viability, colony formation) [6]
< 10 nM | < 10 nM | 10 nM | < 10 nM | – | COc1cc2ncnc(Nc3ccc(F)c(Cl)c3)c2cc1NC(=O)/C=C/CN1CCCCC1 [Dacomitinib] | – | – | – | – | – | – | – | –
– | – | – | – | – | Cc1nc(Nc2ncc(C(=O)Nc3c(C)cccc3Cl)s2)cc(N2CCN(CCO)CC2)n1 [Dasatinib] | induced | – | – | – | – | – | – | –
20 nM | 10 nM | – | 10 nM | 20 nM | C=CC(=O)Nc1cc(Nc2nccc(-c3cn(C)c4ccccc34)n2)c(OC)cc1N(C)CCN(C)C [Osimertinib] | – | induced | – | – | – | – | – | –
1000 nM | 1480 nM | – | – | 1000 nM | C[C@H]1CNC(=O)c2cnn3ccc(nc23)N[C@H](C)c2cc(F)ccc2O1 [TPX-0005] | – | abrogated | abolished or attenuated | minor effect | diminished | synergistic | did not occur | synergistic
